From ChEMBL document CHEMBL5537143, “Synthesis and antimicrobial properties of guanidine-functionalized labdane type diterpenoids” (Eur J Med Chem, 2024)
Converted amounts (≈) assume the structure as drawn.

Experiments:
[1] = tested on: Staphylococcus epidermidis; assay: Antimicrobial activity against Staphylococcus epidermidis ATCC 35984 assessed as inhibition of microbial growth incubated for 24 hrs by broth-microdilution assay; assay type: functional; settings: for MIC: Staphylococcus epidermidis, ATCC 35984, read-out: MIC
Klebsiella pneumoniae [2] = assay: Antimicrobial activity against Klebsiella pneumoniae ATCC 13883 assessed as inhibition of microbial growth incubated for 24 hrs by broth-microdilution assay; assay type: functional
Candida albicans [3] = assay: Antifungal activity against Candida albicans ATCC 10231 assessed as reduction in fungal growth incubated for 48 hrs by CLSI based analysis; assay type: functional; settings: read-out: MIC100
Pseudomonas aeruginosa [4] = assay: Antimicrobial activity against Pseudomonas aeruginosa ATCC 27853 assessed as inhibition of microbial growth incubated for 24 hrs by broth-microdilution assay; assay type: functional
Staphylococcus aureus [5] = assay: Antimicrobial activity against Staphylococcus aureus ATCC 43300 assessed as inhibition of microbial growth incubated for 24 hrs by broth-microdilution assay; assay type: functional
Candida albicans [6] = assay: Antifungal activity against Candida albicans ATCC 90028 assessed as reduction in fungal growth incubated for 48 hrs by CLSI based analysis; assay type: functional
Klebsiella pneumoniae [7] = assay: Antimicrobial activity against Klebsiella pneumoniae ATCC BAA1705 assessed as inhibition of microbial growth incubated for 24 hrs by broth-microdilution assay; assay type: functional
[8] = tested on: Staphylococcus epidermidis; assay: Antimicrobial activity against Staphylococcus epidermidis ATCC 12228 assessed as inhibition of microbial growth incubated for 24 hrs by broth-microdilution assay; assay type: functional; settings: for MIC: Staphylococcus epidermidis, ATCC 12228, read-out: MIC
Staphylococcus aureus [9] = assay: Antimicrobial activity against Staphylococcus aureus ATCC 29213 assessed as inhibition of microbial growth incubated for 24 hrs by broth-microdilution assay; assay type: functional
Pseudomonas aeruginosa [10] = assay: Antimicrobial activity against Pseudomonas aeruginosa PAO1 assessed as inhibition of microbial growth incubated for 24 hrs by broth-microdilution assay; assay type: functional
Pseudomonas aeruginosa [11] = assay: Antimicrobial activity against Pseudomonas aeruginosa PAO1 assessed as inhibition of microbial growth at 128 microg/ml incubated for 24 hrs by broth-microdilution assay relative to control; assay type: functional
[12] = Acute toxicity in zebrafish embryo assessed as mortality rate at 4 microg/ml preincubated with compound for 24 hrs and measured after 48 to 72 hrs post fertilization; parameters: species or system Danio rerio; settings: in vivo, at 4 µg/mL
[13] = Acute toxicity in zebrafish embryo assessed as mortality rate at 8 microg/ml preincubated with compound for 24 hrs and measured after 24 hrs post fertilization; parameters: species or system Danio rerio; settings: in vivo, at 8 µg/mL
Staphylococcus aureus [14] = assay: Antimicrobial activity against Staphylococcus aureus 29213 assessed as inhibition of microbial growth incubated for 24 hrs by broth-microdilution assay; assay type: functional
[15] = Acute toxicity in zebrafish embryo preincubated with compound for 24 hrs and measured after 48 to 72 hrs post fertilization; parameters: species or system Danio rerio; settings: in vivo
Staphylococcus aureus [16] = assay: Synergistic antimicrobial activity against methicillin resistant Staphylococcus aureus 43300 assessed as inhibition of microbial growth incubated for 24 hrs in presence of Oxacillin by checkerboard assay; assay type: functional; settings: read-out: MIC100
[17] = Acute toxicity in zebrafish embryo assessed as mortality rate at 4 microg/ml preincubated with compound for 24 hrs and measured after 24 hrs post fertilization; parameters: species or system Danio rerio; settings: in vivo, at 4 µg/mL
Candida albicans [18] = assay: Synergistic antifungal activity against Candida albicans ATCC 10231 assessed as Voriconazole MIC incubated for 48 hrs by CLSI based analysis; assay type: functional; settings: read-out: MIC100
Klebsiella pneumoniae [19] = assay: Synergistic antimicrobial activity against Klebsiella pneumoniae ATCC BAA1705 assessed as inhibition of microbial growth incubated for 24 hrs in presence of Imipenem by checkerboard assay; assay type: functional; settings: read-out: MIC100
[20] = Acute toxicity in zebrafish embryo assessed as mortality rate at 32 microg/ml preincubated with compound for 24 hrs and measured after 96 hrs post fertilization; parameters: species or system Danio rerio; settings: in vivo, at 32 µg/mL
Staphylococcus aureus [21] = assay: Synergistic antimicrobial activity against methicillin resistant Staphylococcus aureus 43300 assessed as fractional inhibitory concentration index incubated for 24 hrs in presence of Oxacillin by checkerboard assay; assay type: functional
[22] = Acute toxicity in zebrafish embryo assessed as mortality rate at 16 microg/ml preincubated with compound for 24 hrs and measured after 48 to 72 hrs post fertilization; parameters: species or system Danio rerio; settings: in vivo, at 16 µg/mL
[23] = Acute toxicity in zebrafish embryo assessed as mortality rate at 0.7 microg/ml preincubated with compound for 24 hrs and measured after 96 hrs post fertilization; parameters: species or system Danio rerio; settings: in vivo, at 0.7 µg/mL
[24] = Acute toxicity in zebrafish embryo assessed as mortality rate at 8 microg/ml preincubated with compound for 24 hrs and measured after 96 hrs post fertilization; parameters: species or system Danio rerio; settings: in vivo, at 8 µg/mL
[25] = Acute toxicity in zebrafish embryo preincubated with compound for 24 hrs and measured after 96 hrs post fertilization; parameters: species or system Danio rerio; settings: in vivo
Klebsiella pneumoniae [26] = assay: Antimicrobial activity against Carbapenem-resistant Klebsiella pneumoniae ATCC BAA1705 assessed as inhibition of microbial growth incubated for 24 hrs by broth-microdilution assay; assay type: functional
[27] = Acute toxicity in zebrafish embryo assessed as mortality rate at 16 microg/ml preincubated with compound for 24 hrs and measured after 24 hrs post fertilization; parameters: species or system Danio rerio; settings: in vivo, at 16 µg/mL
Klebsiella pneumoniae [28] = assay: Antimicrobial activity against Carbapenem -resistant Klebsiella pneumoniae ATCC 13883 assessed as inhibition of microbial growth incubated for 24 hrs by broth-microdilution assay; assay type: functional
[29] = Acute toxicity in zebrafish embryo assessed as mortality rate at 8 microg/ml preincubated with compound for 24 hrs and measured after 48 to 72 hrs post fertilization; parameters: species or system Danio rerio; settings: in vivo, at 8 µg/mL
Candida albicans [30] = assay: Synergistic antifungal activity against Candida albicans ATCC 10231 assessed as reduction in fungal growth incubated for 48 hrs in presence of Voriconazole by CLSI based analysis; assay type: functional; settings: read-out: MIC100
[31] = Acute toxicity in zebrafish embryo assessed as mortality rate at 4 microg/ml preincubated with compound for 24 hrs and measured after 96 hrs post fertilization; parameters: species or system Danio rerio; settings: in vivo, at 4 µg/mL
Pseudomonas aeruginosa [32] = assay: Antimicrobial activity against Pseudomonas aeruginosa 27853 assessed as inhibition of microbial growth at 128 microg/ml incubated for 24 hrs by broth-microdilution assay relative to control; assay type: functional
Staphylococcus aureus [33] = assay: Antimicrobial activity against methicillin resistant Staphylococcus aureus 43300 assessed as inhibition of microbial growth incubated for 24 hrs by broth-microdilution assay; assay type: functional; settings: read-out: MIC
[34] = Acute toxicity in zebrafish embryo preincubated with compound for 24 hrs and measured after 24 hrs post fertilization; parameters: species or system Danio rerio; settings: in vivo
Candida albicans [35] = assay: Synergistic antifungal activity against Candida albicans ATCC 10231 assessed as fractional inhibitory concentration index incubated for 48 hrs in presence of Voriconazole by CLSI based analysis; assay type: functional
Klebsiella pneumoniae [36] = assay: Synergistic antimicrobial activity against Klebsiella pneumoniae ATCC BAA1705 assessed as Imipenem MIC incubated for 24 hrs by checkerboard assay; assay type: functional; settings: read-out: MIC100
Klebsiella pneumoniae [37] = assay: Synergistic antimicrobial activity against Klebsiella pneumoniae ATCC BAA1705 assessed as fractional inhibitory concentration index incubated for 24 hrs in presence of Imipenem by checkerboard assay; assay type: functional
Staphylococcus aureus [38] = assay: Synergistic antimicrobial activity against methicillin resistant Staphylococcus aureus 43300 assessed as Oxacillin MIC incubated for 24 hrs by checkerboard assay; assay type: functional; settings: read-out: MIC100
[39] = Acute toxicity in zebrafish embryo assessed as mortality rate at 32 microg/ml preincubated with compound for 24 hrs and measured after 24 hrs post fertilization; parameters: species or system Danio rerio; settings: in vivo, at 32 µg/mL
[40] = Acute toxicity in zebrafish embryo assessed as mortality rate at 16 microg/ml preincubated with compound for 24 hrs and measured after 96 hrs post fertilization; parameters: species or system Danio rerio; settings: in vivo, at 16 µg/mL
[41] = Acute toxicity in zebrafish embryo assessed as mortality rate at 2 microg/ml preincubated with compound for 24 hrs and measured after 96 hrs post fertilization; parameters: species or system Danio rerio; settings: in vivo, at 2 µg/mL

Question: Which MIC70 [1] does the source give for `CC1(C)CCC[C@]2(C)[C@H]3CC[C@](C)(CC(=O)O)O[C@]3(C)CC[C@@H]12` here?
Answer: The MIC70 was 64 µg/mL.

Question: And the MIC (Klebsiella pneumoniae [2]; read-out: MIC100)?
Answer: The MIC was > 128 µg/mL.

Question: And the MIC (Candida albicans [3])?
Answer: The MIC was > 128 µg/mL.

Question: And the MIC (Pseudomonas aeruginosa [4]; Pseudomonas aeruginosa, ATCC 27853, read-out: MIC100)?
Answer: Its MIC is > 128 µg/mL.

Question: What about the MIC70 (Staphylococcus aureus [5]) of the same compound?
Answer: Its MIC70 is 64 µg/mL.

Question: And the MIC (Candida albicans [6]; read-out: MIC100)?
Answer: The MIC was > 128 µg/mL.

Question: And the MIC (Klebsiella pneumoniae [7]; read-out: MIC100)?
Answer: Its MIC is > 128 µg/mL.

Question: And the MIC70 [8]?
Answer: The MIC70 was 64 µg/mL.

Question: What about the MIC70 (Staphylococcus aureus [9]) of the same compound?
Answer: Its MIC70 is 64 µg/mL.

Question: And the MIC (Pseudomonas aeruginosa [10]; Pseudomonas aeruginosa, PAO1, read-out: MIC100)?
Answer: Its MIC is > 128 µg/mL.

Question: What does the source list for `CC1(C)CCC[C@]2(C)[C@H]3CC[C@](C)(CC(=O)NC(=N)N)O[C@]3(C)CC[C@@H]12`?
Answer: inhibition at 128 µg/mL (Pseudomonas aeruginosa [11]): 75%; mortality at 4 microg/ml [12]: 0%; MIC [1]: 4 µg/mL; MIC (Klebsiella pneumoniae [2]; read-out: MIC): 16 µg/mL; mortality at 24 h, 8 microg/ml [13]: 15%; MIC (Staphylococcus aureus [14]): 4 µg/mL; MIC (Candida albicans [3]): 16 µg/mL (≈ 44 µM); LC50 at 24 h [15]: 8.1 µg/mL (≈ 22.3 µM); MIC70 (Pseudomonas aeruginosa [4]): 128 µg/mL; MIC (Staphylococcus aureus [16]): 4 µg/mL; mortality at 24 h, 4 microg/ml [17]: 0%; MIC (Staphylococcus aureus [5]; Staphylococcus aureus, ATCC 43300, read-out: MIC100): 8 µg/mL; MIC (Candida albicans [18]): 0.125 µg/mL; MIC (Klebsiella pneumoniae [19]): 16 µg/mL; MIC (Candida albicans [6]; read-out: MIC): 16 µg/mL (≈ 44 µM); mortality at 96 h, 32 microg/ml [20]: 100%; fractional inhibitory concentration index (FICI) (Staphylococcus aureus [21]): 0.512; mortality at 16 microg/ml [22]: 100%; MIC (Klebsiella pneumoniae [7]; read-out: MIC): 32 µg/mL; MIC [8]: 4 µg/mL; mortality at 96 h, 0.7 microg/ml [23]: 0%; mortality at 96 h, 8 microg/ml [24]: 95%; LC50 at 96 h [25]: 6 µg/mL (≈ 16.5 µM); MIC (Klebsiella pneumoniae [26]): 32 µg/mL; mortality at 24 h, 16 microg/ml [27]: 75%; MIC (Klebsiella pneumoniae [28]): 32 µg/mL; mortality at 24 h, 8 microg/ml [29]: 35%; MIC (Candida albicans [30]): 4 µg/mL; mortality at 96 h, 4 microg/ml [31]: 5%; inhibition at 128 µg/mL (Pseudomonas aeruginosa [32]): 70%; MIC (Staphylococcus aureus [33]): 4 µg/mL; LC50 at 24 h [34]: 14 µg/mL (≈ 38.5 µM); fractional inhibitory concentration index (FICI) (Candida albicans [35]): 0.254; MIC (Staphylococcus aureus [9]; Staphylococcus aureus, ATCC 29213, read-out: MIC100): 8 µg/mL; MIC75 (Pseudomonas aeruginosa [10]): 128 µg/mL; MIC (Klebsiella pneumoniae [36]): 2 µg/mL; fractional inhibitory concentration index (FICI) (Klebsiella pneumoniae [37]): 0.6; MIC (Staphylococcus aureus [38]): 0.125 µg/mL; mortality at 24 h, 32 microg/ml [39]: 95%; mortality at 96 h, 16 microg/ml [40]: 100%; mortality at 96 h, 2 microg/ml [41]: 0%

Question: Which MIC [1] does the source give for `CC1=C(CC/C=C(\C)C(=O)N=C(N)N)[C@@]2(C)CCCC(C)(C)[C@@H]2CC1` here?
Answer: The MIC was 4 µg/mL.

Question: And the MIC (Staphylococcus aureus [14])?
Answer: Its MIC is 4 µg/mL.

Question: And the MIC (Candida albicans [6]; read-out: MIC)?
Answer: The MIC was 8 µg/mL (≈ 23.2 µM).

Question: And the MIC [8]?
Answer: The MIC was 4 µg/mL.

Question: And the MIC (Staphylococcus aureus [33])?
Answer: Its MIC is 4 µg/mL.
